{"source": "patent US20120142646A1", "about": "“Novel Compounds 621” (priority 2006, published 2012)", "key": {"Adrenergic β2": {"biological_target": "T1, Adrenergic β2 (Homo sapiens, UniProt P07550)", "T1 construct": "Adherent H292 cells were removed from tissue culture flasks; endogenous in cells; host or cells: H292 cells", "T1 sequence (P07550 whole entry)": "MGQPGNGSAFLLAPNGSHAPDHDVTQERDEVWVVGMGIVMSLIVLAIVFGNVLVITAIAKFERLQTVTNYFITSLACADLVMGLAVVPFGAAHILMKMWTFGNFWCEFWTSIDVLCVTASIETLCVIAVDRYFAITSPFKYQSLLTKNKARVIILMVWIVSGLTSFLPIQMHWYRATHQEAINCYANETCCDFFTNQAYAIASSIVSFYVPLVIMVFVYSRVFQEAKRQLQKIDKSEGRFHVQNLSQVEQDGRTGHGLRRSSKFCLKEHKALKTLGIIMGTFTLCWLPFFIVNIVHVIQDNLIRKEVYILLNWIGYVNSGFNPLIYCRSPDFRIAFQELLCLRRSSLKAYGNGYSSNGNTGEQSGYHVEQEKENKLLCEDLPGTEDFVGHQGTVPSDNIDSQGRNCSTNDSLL", "experiment": "Adrenergic β2 mediated cAMP production in H292 cells (AlphaScreen cAMP detection)", "format": "cell-based", "design": "key to β2 Int Act: fraction of formoterol maximum activity (formoterol = 1)", "how_it_was_run": "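H292 cells pre-treated 10 min with rolipram (300 μM final), then given agonist for 60 min at room temperature in HBSS/10 mM HEPES pH 7.4, 1.6% DMSO final. Lysate cAMP measured by AlphaScreen against a cAMP standard curve. Four-parameter fit gives pEC50; intrinsic activity relative to formoterol maximum.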"}, "[1]": {"biological_target": "T2, recombinant human α1D receptor (Homo sapiens, UniProt P25100)", "T2 construct": "expressed in transfected cells; host or cells: HEK293", "T2 sequence (P25100 1-572)": "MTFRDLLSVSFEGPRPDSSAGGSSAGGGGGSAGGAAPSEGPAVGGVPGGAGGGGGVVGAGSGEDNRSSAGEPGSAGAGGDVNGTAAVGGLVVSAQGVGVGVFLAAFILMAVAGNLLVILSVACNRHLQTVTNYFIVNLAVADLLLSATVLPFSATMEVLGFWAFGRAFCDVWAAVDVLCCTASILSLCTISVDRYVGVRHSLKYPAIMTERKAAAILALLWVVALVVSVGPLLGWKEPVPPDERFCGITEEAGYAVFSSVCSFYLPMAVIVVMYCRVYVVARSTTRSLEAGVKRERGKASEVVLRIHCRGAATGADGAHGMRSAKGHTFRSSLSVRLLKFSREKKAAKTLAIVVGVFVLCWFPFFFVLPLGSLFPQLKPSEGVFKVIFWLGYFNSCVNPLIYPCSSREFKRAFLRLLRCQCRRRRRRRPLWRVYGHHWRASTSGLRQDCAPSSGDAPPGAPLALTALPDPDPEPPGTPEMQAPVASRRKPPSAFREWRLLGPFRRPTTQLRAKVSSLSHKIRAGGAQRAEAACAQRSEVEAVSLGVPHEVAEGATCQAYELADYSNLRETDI", "experiment": "Adrenergic α1D [3H]-prazosin binding, HEK293 membranes", "conditions": "inhibition of [3H]-prazosin binding (0.3 nM), read-out: α1 bind pIC50 (converted)", "description": "Membranes were prepared from human embryonic kidney 293 (HEK293) cells expressing recombinant human α1D receptor. These were diluted in Assay Buffer (50 mM HEPES, 1 mM EDTA, pH 7.4) to provide a final concentration of membranes that gave a clear window between maximum and minimum specific binding.\nAssays were performed in U-bottomed 96-well polypropylene plates. 10 μL [^3H]-prazosin (0.3 nM final concentration) and 10 μL of test compound (10× final concentration) were added to each test well. For each assay plate 8 replicates were obtained for [^3H]-prazosin binding in the presence of 10 μL vehicle (10% (v/v) DMSO in Assay Buffer; defining maximum binding) or 10 μL BMY7378 (10 μM final concentration; defining non-specific binding (NSB)). Membranes were then added to achieve a final volume of 100 μL. The plates were incubated for 2 hours at room temperature and then filtered onto PEI coated GF/B filter plates, pre-soaked for 1 hour in Assay Buffer, using a 96-well plate Tomtec cell harvester. Five washes with 250 μL wash buffer (50 mM HEPES, 1 mM EDTA, pH 7.4) were performed at 4° C. to remove unbound radioactivity. […] The plates were sealed (TopSeal A) and filter-bound radioactivity was measured with a scintillation counter (TopCount, Packard BioScience) using a 3-minute counting protocol.\nTotal specific binding (B0) was determined by subtracting the mean NSB from the mean maximum binding. […]"}}, "data": [{"smiles": "CCCCC[C@@H](C)N(CCNCCc1ccc(O)c2c1OCC(=O)N2)C(=O)CCNCCc1ccccc1", "note": "[Example 60, (R)—N-(Heptan-2-yl)-N-(2-(2-(5-hydroxy-3-oxo-3,4-dihydro-2H-benzo[b][1,4]oxazin-8-yl)ethylamino)ethyl)-3-(phenethylamino)propanamide bis(trifluoroacetate)]", "values": [{"measurement": "EC50", "setting": "Adrenergic β2; H292 cells, cAMP production, 60 minutes at room temperature, 300 μM rolipram, read-out: β2 pEC50 (converted)", "value": 3.98, "unit": "nM"}, {"measurement": "β2 Int Act", "setting": "Adrenergic β2; Intrinsic Activity as a fraction relative to the maximum activity determined for formoterol", "value": 0.92}, {"measurement": "IC50", "setting": "[1]", "value": 100, "unit": "nM"}]}]}
